Experimental data taken from patent US9636418B2 (priority 2013, dated 2017).
Several values for one entry are separate records, joined by “and”; a condition that tells them apart may be missing. Identical values can stand only once.

Legend:
Assay in all cases: cell-based
hNav1.5 = hNav1.5 (Homo sapiens, UniProt Q14524); conditions: IonWorks Quattro; read-out: IC50 Nav1.5
hNav1.4 = hNav1.4 (Homo sapiens, UniProt P35499); conditions: for IC50: IonWorks Quattro, read-out: IC50 Nav1.4; for Nav1.4/Nav1.7: ratio of IonWorks Quattro IC50 values
hNav1.7 = hNav1.7 (Homo sapiens, UniProt Q15858); conditions: IonWorks Quattro; read-out: IC50 Nav1.7
hNav1.3 = hNav1.3 (Homo sapiens, UniProt Q9NY46); conditions: IonWorks Quattro; read-out: IC50 Nav1.3

Sequence of hNav1.5 (Q14524 whole entry): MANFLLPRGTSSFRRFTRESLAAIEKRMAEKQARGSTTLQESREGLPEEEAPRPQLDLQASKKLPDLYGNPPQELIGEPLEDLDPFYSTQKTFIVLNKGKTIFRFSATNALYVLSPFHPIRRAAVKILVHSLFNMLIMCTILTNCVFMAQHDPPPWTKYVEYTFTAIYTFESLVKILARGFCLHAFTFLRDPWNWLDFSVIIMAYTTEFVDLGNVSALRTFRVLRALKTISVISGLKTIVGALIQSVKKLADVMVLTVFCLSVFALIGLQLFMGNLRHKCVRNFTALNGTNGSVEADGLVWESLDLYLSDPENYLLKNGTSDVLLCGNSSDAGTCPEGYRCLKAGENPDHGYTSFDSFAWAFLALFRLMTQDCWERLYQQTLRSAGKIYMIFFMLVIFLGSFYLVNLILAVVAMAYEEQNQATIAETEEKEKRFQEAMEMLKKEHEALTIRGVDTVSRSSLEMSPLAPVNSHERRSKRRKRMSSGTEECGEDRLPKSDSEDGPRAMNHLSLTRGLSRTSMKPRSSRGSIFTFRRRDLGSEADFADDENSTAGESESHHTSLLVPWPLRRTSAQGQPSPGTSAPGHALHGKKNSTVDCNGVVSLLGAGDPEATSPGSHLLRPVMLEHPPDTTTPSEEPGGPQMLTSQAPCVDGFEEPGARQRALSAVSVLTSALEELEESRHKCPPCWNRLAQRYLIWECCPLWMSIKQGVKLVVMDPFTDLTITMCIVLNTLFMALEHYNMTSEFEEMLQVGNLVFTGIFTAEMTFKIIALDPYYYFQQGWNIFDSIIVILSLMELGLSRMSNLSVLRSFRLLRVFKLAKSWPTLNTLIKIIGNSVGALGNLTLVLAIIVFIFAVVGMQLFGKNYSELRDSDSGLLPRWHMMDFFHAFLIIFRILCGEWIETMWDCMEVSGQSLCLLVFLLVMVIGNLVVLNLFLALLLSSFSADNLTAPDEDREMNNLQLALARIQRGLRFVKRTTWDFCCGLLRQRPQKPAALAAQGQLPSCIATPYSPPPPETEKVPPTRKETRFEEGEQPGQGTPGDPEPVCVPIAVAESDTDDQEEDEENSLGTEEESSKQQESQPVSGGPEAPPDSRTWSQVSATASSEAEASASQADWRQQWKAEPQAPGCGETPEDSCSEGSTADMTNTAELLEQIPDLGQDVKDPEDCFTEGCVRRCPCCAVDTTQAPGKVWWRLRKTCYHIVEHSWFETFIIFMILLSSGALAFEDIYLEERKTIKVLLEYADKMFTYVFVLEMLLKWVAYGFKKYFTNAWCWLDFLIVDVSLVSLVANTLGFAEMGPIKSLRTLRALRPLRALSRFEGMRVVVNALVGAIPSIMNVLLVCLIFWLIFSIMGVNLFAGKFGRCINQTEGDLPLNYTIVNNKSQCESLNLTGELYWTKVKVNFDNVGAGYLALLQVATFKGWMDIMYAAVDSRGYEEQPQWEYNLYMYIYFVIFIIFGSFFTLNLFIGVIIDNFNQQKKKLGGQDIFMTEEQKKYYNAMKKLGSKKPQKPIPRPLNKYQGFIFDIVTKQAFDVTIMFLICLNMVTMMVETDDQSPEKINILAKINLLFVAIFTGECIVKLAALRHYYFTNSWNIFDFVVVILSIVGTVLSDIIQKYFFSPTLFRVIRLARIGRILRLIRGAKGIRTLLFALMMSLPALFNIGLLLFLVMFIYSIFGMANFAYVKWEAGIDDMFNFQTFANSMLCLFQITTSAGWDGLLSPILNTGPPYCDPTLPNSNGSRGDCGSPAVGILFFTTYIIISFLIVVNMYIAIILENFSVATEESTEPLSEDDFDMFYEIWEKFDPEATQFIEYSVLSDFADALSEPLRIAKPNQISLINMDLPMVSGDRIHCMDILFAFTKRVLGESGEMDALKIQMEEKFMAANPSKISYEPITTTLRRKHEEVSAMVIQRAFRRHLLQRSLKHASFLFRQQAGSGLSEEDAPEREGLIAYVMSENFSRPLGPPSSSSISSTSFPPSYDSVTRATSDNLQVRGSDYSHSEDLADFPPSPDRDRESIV
Sequence of hNav1.7 (Q15858 whole entry): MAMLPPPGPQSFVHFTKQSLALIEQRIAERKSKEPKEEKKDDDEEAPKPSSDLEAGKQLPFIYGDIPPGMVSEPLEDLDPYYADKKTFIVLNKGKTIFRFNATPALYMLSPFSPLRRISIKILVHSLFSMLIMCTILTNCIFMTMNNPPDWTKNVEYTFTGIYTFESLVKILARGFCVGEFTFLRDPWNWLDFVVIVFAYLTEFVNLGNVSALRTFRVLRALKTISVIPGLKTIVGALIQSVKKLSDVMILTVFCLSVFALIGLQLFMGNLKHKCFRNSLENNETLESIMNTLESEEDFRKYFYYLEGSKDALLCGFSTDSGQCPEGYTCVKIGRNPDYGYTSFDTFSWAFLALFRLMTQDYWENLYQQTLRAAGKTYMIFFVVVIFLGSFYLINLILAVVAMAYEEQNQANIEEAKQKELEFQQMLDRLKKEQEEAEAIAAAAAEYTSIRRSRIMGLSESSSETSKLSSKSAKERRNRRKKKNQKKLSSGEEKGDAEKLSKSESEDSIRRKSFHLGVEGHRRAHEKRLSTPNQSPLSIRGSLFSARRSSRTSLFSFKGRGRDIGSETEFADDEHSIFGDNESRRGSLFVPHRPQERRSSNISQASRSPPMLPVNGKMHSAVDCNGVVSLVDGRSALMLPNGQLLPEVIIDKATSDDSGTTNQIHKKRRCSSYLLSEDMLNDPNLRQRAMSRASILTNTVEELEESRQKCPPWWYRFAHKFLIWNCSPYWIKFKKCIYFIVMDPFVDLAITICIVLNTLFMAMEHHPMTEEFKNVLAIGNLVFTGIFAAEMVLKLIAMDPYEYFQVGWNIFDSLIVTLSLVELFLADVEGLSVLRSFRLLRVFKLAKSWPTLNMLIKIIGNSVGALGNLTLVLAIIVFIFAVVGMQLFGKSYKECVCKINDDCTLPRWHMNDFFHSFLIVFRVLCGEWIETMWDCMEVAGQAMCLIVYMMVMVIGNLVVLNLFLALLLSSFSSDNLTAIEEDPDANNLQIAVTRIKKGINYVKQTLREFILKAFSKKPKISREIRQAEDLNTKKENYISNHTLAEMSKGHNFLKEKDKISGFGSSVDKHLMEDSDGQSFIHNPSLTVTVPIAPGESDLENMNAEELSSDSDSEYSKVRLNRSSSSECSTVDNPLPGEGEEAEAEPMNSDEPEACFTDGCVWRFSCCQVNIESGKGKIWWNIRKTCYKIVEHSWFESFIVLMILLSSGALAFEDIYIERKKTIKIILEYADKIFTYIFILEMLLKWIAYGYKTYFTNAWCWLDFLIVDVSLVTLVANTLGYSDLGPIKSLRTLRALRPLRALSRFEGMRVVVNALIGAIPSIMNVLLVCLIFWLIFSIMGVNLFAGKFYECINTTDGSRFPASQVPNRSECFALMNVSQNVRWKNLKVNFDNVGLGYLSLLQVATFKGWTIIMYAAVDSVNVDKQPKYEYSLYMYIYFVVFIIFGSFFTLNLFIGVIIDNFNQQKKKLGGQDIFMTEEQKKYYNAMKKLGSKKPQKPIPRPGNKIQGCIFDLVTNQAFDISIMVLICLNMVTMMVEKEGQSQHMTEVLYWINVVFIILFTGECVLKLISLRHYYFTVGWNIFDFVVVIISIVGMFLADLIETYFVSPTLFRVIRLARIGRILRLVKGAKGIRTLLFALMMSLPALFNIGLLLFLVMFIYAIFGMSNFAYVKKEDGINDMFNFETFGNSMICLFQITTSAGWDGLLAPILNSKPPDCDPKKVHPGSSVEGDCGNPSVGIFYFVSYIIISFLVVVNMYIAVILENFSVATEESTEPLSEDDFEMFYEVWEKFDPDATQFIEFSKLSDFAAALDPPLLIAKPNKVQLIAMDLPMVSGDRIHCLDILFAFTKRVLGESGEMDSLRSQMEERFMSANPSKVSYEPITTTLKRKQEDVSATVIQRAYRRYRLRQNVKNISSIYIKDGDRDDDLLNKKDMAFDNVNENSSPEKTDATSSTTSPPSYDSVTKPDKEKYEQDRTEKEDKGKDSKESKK

SMILES: CCCC[C@@H]1NC(=O)[C@H](Cc2c[nH]c3ccccc23)NC(=O)[C@H](CCCCN)NC(=O)[C@H](CCC(N)=O)NC(=O)[C@@H](NC(=O)[C@@H](N)Cc2ccc(O)cc2)CSSC[C@@H]2NC(=O)[C@@H]3CSSC[C@@H](C(=O)N[C@@H](CCCNC(=N)N)C(=O)N[C@@H](CCCCN)C(=O)N[C@H](C(=O)N[C@H](C(N)=O)[C@@H](C)CC)[C@@H](C)CC)NC(=O)[C@H](Cc4c[nH]c5ccccc45)NC(=O)[C@H](CC(C)C)NC(=O)[C@H](CCCCN)NC(=O)[C@H](CSSC[C@H](NC(=O)[C@H]([C@@H](C)O)NC(=O)[C@H](Cc4c[nH]c5ccccc45)NC1=O)C(=O)N[C@@H](CC(=O)O)C(=O)N[C@@H](CO)C(=O)N[C@@H](CCCCN)C(=O)N[C@@H](CCCNC(=N)N)C(=O)N[C@@H](C)C(=O)N3)NC(=O)[C@H](CCC(=O)O)NC(=O)[C@H](CC(C)C)NC(=O)CNC(=O)[C@H](CCC(=O)O)NC2=O [compound 273]
- IC50 (hNav1.5): > 5 µM
- IC50 (hNav1.4): > 5 µM
- IC50 (hNav1.7): 0.19 µM
- IC50 (hNav1.3): 4.1 µM

SMILES: CC[C@H](C)[C@H](NC(=O)[C@H](CCCCN)NC(=O)[C@H](CCCNC(=N)N)NC(=O)[C@@H]1CSSC[C@@H]2NC(=O)[C@H](C)NC(=O)[C@H](CCCNC(=N)N)NC(=O)[C@H](CCCCN)NC(=O)[C@H](CO)NC(=O)[C@H](CC(=O)O)NC(=O)[C@@H]3CSSC[C@H](NC(=O)[C@H](CCC(=O)O)NC(=O)[C@H](CC(C)C)NC(=O)CNC(=O)[C@H](CCC(=O)O)NC(=O)[C@H](CSSC[C@H](NC(=O)[C@@H](N)Cc4ccc(O)cc4)C(=O)N[C@@H](CCC(N)=O)C(=O)N[C@@H](CCCCN)C(=O)N[C@@H](Cc4c[nH]c5ccccc45)C(=O)N[C@@H](CCSC)C(=O)N[C@@H](Cc4c[nH]c5ccccc45)C(=O)N[C@@H]([C@@H](C)O)C(=O)N3)NC2=O)C(=O)N[C@@H](CCCCN)C(=O)N[C@@H](CC(C)C)C(=O)N[C@@H](Cc2c[nH]c3ccccc23)C(=O)N1)C(=O)N[C@H](C(=O)N[C@@H](Cc1c[nH]c2ccccc12)C(N)=O)[C@@H](C)CC [compound 113]
- IC50 (hNav1.5): 11.1 µM
- IC50 (hNav1.4): > 5 µM
- Nav1.4/Nav1.7 (hNav1.4): 30
- IC50 (hNav1.7): 0.17 µM
- IC50 (hNav1.3): > 5 µM

SMILES: CC[C@H](C)[C@H](NC(=O)[C@H](Cc1ccc(C(=O)O)cc1)NC(=O)[C@H](CCCCN)NC(=O)[C@H](CCCNC(=N)N)NC(=O)[C@@H]1CSSC[C@@H]2NC(=O)[C@H](C)NC(=O)[C@H](CCCNC(=N)N)NC(=O)[C@H](CCCCN)NC(=O)[C@H](CO)NC(=O)[C@H](CC(=O)O)NC(=O)[C@@H]3CSSC[C@H](NC(=O)[C@H](CCC(=O)O)NC(=O)[C@H](CC(C)C)NC(=O)CNC(=O)[C@H](CCC(=O)O)NC(=O)[C@H](CSSC[C@H](NC(=O)[C@@H](N)Cc4ccc(O)cc4)C(=O)N[C@@H](CCC(N)=O)C(=O)N[C@@H](CCCCN)C(=O)N[C@@H](Cc4c[nH]c5ccccc45)C(=O)N[C@@H](CCSC)C(=O)N[C@@H](Cc4c[nH]c5ccccc45)C(=O)N[C@@H]([C@@H](C)O)C(=O)N3)NC2=O)C(=O)N[C@@H](CCCCN)C(=O)N[C@@H](CC(C)C)C(=O)N[C@@H](Cc2c[nH]c3ccccc23)C(=O)N1)C(N)=O [compound 127]
- IC50 (hNav1.5): 16.7 µM
- IC50 (hNav1.4): > 5 µM
- Nav1.4/Nav1.7 (hNav1.4): 2
- IC50 (hNav1.7): 2.35 µM
- IC50 (hNav1.3): > 5 µM

SMILES: CC[C@H](C)[C@H](NC(=O)[C@H](CC(C)C)NC(=O)[C@H](CCCCN)NC(=O)[C@H](CCCNC(=N)N)NC(=O)[C@@H]1CSSC[C@@H]2NC(=O)[C@H](C)NC(=O)[C@H](CCCNC(=N)N)NC(=O)[C@H](CCCCN)NC(=O)[C@H](CO)NC(=O)[C@H](CC(=O)O)NC(=O)[C@@H]3CSSC[C@H](NC(=O)[C@H](CCC(=O)O)NC(=O)[C@H](CC(C)C)NC(=O)CNC(=O)[C@H](CCC(=O)O)NC(=O)[C@H](CSSC[C@H](NC(=O)[C@@H](N)Cc4ccc(O)cc4)C(=O)N[C@@H](CCC(N)=O)C(=O)N[C@@H](CCCCN)C(=O)N[C@@H](Cc4c[nH]c5ccccc45)C(=O)N[C@@H](CCSC)C(=O)N[C@@H](Cc4c[nH]c5ccccc45)C(=O)N[C@@H]([C@@H](C)O)C(=O)N3)NC2=O)C(=O)N[C@@H](CCCCN)C(=O)N[C@@H](CC(C)C)C(=O)N[C@@H](Cc2c[nH]c3ccccc23)C(=O)N1)C(N)=O [compound 132]
- IC50 (hNav1.5): 6.7 µM
- IC50 (hNav1.4): > 5 µM
- Nav1.4/Nav1.7 (hNav1.4): 12
- IC50 (hNav1.7): 0.41 µM
- IC50 (hNav1.3): > 5 µM

SMILES: CC[C@H](C)[C@H](NC(=O)[C@H](Cc1ccc(O)cc1)NC(=O)[C@H](CCCCN)NC(=O)[C@H](CCCNC(=N)N)NC(=O)[C@@H]1CSSC[C@@H]2NC(=O)[C@H](C)NC(=O)[C@H](CCCNC(=N)N)NC(=O)[C@H](CCCCN)NC(=O)[C@H](CO)NC(=O)[C@H](CC(=O)O)NC(=O)[C@@H]3CSSC[C@H](NC(=O)[C@H](CCC(=O)O)NC(=O)[C@H](CC(C)C)NC(=O)CNC(=O)[C@H](CCC(=O)O)NC(=O)[C@H](CSSC[C@H](NC(=O)[C@@H](N)Cc4ccc(O)cc4)C(=O)N[C@@H](CCC(N)=O)C(=O)N[C@@H](CCCCN)C(=O)N[C@@H](Cc4c[nH]c5ccccc45)C(=O)N[C@@H](CCSC)C(=O)N[C@@H](Cc4c[nH]c5ccccc45)C(=O)N[C@@H]([C@@H](C)O)C(=O)N3)NC2=O)C(=O)N[C@@H](CCCCN)C(=O)N[C@@H](CC(C)C)C(=O)N[C@@H](CC(C)C)C(=O)N1)C(N)=O [compound 224]
- IC50 (hNav1.5): > 5 µM
- IC50 (hNav1.4): > 5 µM
- IC50 (hNav1.7): > 5 µM
- IC50 (hNav1.3): > 5 µM

SMILES: CC[C@H](C)[C@H](NC(=O)[C@H](Cc1ccc(O)cc1)NC(=O)[C@H](CCCCN)NC(=O)[C@H](CCCNC(=N)N)NC(=O)[C@@H]1CSSC[C@@H]2NC(=O)[C@H](C)NC(=O)[C@H](CCCNC(=N)N)NC(=O)[C@H](CCCCN)NC(=O)[C@H](CO)NC(=O)[C@H](CC(=O)O)NC(=O)[C@@H]3CSSC[C@H](NC(=O)[C@H](CCCNC(=N)N)NC(=O)[C@H](CC(C)C)NC(=O)CNC(=O)[C@H](CCC(=O)O)NC(=O)[C@H](CSSC[C@H](NC(=O)[C@@H](N)CCC(=O)O)C(=O)N[C@@H](CCC(N)=O)C(=O)N[C@@H](CCCCN)C(=O)N[C@@H](Cc4c[nH]c5ccccc45)C(=O)N[C@@H](CCSC)C(=O)N[C@@H](Cc4c[nH]c5ccccc45)C(=O)N[C@@H]([C@@H](C)O)C(=O)N3)NC2=O)C(=O)N[C@@H](CCCCN)C(=O)N[C@@H](CC(C)C)C(=O)N[C@@H](Cc2c[nH]c3ccccc23)C(=O)N1)C(N)=O [compound 278]
- IC50 (hNav1.5): > 5 µM
- IC50 (hNav1.4): 0.7 µM
- Nav1.4/Nav1.7 (hNav1.4): 16
- IC50 (hNav1.7): 0.046 µM
- IC50 (hNav1.3): 0.3 µM

SMILES: CC[C@H](C)[C@H](NC(=O)[C@H](Cc1ccc(O)cc1)NC(=O)[C@H](CCCCN)NC(=O)[C@H](CCCNC(=N)N)NC(=O)[C@@H]1CSSC[C@@H]2NC(=O)[C@H](C)NC(=O)[C@H](CCCNC(=N)N)NC(=O)[C@H](CCCCN)NC(=O)[C@H](CO)NC(=O)[C@H](CC(=O)O)NC(=O)[C@@H]3CSSC[C@H](NC(=O)[C@H](CCC(=O)O)NC(=O)[C@H](CC(C)C)NC(=O)CNC(=O)[C@H](CCC(=O)O)NC(=O)[C@H](CSSC[C@H](NC(=O)[C@@H](N)Cc4ccc(O)cc4)C(=O)N[C@@H](CCC(N)=O)C(=O)N[C@@H](CCCCN)C(=O)N[C@@H](Cc4ccc(O)cc4)C(=O)N[C@@H](CCSC)C(=O)N[C@@H](Cc4c[nH]c5ccccc45)C(=O)N[C@@H]([C@@H](C)O)C(=O)N3)NC2=O)C(=O)N[C@@H](CCCCN)C(=O)N[C@@H](CC(C)C)C(=O)N[C@@H](Cc2c[nH]c3ccccc23)C(=O)N1)C(N)=O [compound 194]
- IC50 (hNav1.5): > 5 µM
- IC50 (hNav1.4): > 5 µM
- IC50 (hNav1.7): 0.91 µM and 2.5 µM
- IC50 (hNav1.3): > 5 µM
